Results reported in patent US20260055102A1 (Redx Pharma Limited, priority 2022, published 2026).

Tests used:
[1] = target: Recombinant human DDR1 (aa440-876 containing a GST tag) (Homo sapiens (Human), UniProt Q08345); assay: LanthaScreen Eu Kinase Binding Assay DDR1; settings: Kinase Tracer 178 5 nM, at least two independent replicates; for IC50: read-out: DDR1 pIC50 (converted)
Description: (§1) DDR1 and DDR2 Biochemical Assay Method The capacity of compounds to bind to DDR1 and DDR2 was quantified using a LanthaScreen Eu Kinase Binding Assay. Recombinant human DDR1 (2.5 nM; aa440-876 containing a GST tag) and DDR2 (1.75 nM; aa427-855 containing a GST tag) were diluted in assay buffer (50 mM HEPES pH7.3, 10 mM MgCl2, 1 mM EGTA and 0.01% Tween) with various concentrations of compound in a 384-well plate and a volume of 5 uL. After a 30-minute incubation at room temperature, 2.5 uL of Eu-anti GST antibody (diluted to 1 nM in assay buffer) plus Kinase Tracer 178 (diluted in assay buffer to 5 nM for DDR1 and 10 nM for DDR2) were added to the plate. Following 60-minute incubation at room temperature, time-resolved fluorescence was measured on a BMG Labtech PHERAstar plate reader. DMSO (1%) and reference compound (1 μM) were used to generate the Max and Min assay signals, respectively. Data was analysed using a four-parameter logistic model to calculate IC50 values, with at least two independent replicates were performed for each compound.

[2] = target: Recombinant human DDR2 (aa427-855 containing a GST tag) (Homo sapiens (Human), UniProt Q16832); assay: LanthaScreen Eu Kinase Binding Assay DDR2; settings: Kinase Tracer 178 10 nM, at least two independent replicates
Description: as §1

Sequence of Recombinant human DDR2 (aa427-855 containing a GST tag) (Q16832 427-855): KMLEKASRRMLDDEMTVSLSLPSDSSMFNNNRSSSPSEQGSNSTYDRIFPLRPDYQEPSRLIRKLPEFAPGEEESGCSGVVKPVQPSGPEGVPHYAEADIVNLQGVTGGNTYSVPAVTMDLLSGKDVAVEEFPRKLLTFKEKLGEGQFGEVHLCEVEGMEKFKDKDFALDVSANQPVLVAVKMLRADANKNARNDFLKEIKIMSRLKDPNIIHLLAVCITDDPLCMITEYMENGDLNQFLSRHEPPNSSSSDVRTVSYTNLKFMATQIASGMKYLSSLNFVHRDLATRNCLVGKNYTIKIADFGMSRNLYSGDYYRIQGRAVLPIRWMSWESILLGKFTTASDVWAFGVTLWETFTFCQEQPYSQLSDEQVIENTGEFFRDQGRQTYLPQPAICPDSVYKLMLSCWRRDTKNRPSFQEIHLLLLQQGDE
Sequence of Recombinant human DDR1 (aa440-876 containing a GST tag) (Q08345 other isoform, or with tags, fused parts or gaps): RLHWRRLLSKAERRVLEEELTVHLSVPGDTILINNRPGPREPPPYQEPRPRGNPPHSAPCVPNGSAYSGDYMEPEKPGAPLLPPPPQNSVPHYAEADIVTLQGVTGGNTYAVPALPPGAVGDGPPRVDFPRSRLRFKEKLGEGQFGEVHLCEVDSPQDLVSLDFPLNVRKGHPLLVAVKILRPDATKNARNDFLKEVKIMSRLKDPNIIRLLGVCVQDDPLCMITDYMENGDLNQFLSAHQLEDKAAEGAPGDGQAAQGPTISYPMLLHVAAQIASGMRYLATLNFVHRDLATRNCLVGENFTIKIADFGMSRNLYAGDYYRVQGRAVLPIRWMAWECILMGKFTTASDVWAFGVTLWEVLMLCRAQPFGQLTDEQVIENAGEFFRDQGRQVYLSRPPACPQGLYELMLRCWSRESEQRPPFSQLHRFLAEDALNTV

| Structure (SMILES) | DDR1 pIC50 [1] | DDR2 pIC50 [2] | IC50 ([2]; read-out: DDR2 pIC50 (converted)) | IC50 [1] |
| --- | --- | --- | --- | --- |
| CN1CCN(C(=O)Cn2c(=O)n(-c3ccc(-c4cncc5c4cnn5C)cc3)c3ccccc32)CC1 [Example 21, 1-[2-(4-methylpiperazin-1-yl)-2-oxoethyl]-3-[4-(1-methylpyrazolo[3,4-c]pyridin-4-yl)phenyl]benzimidazol-2-one] | D (pIC50≤6) | D (pIC50≤6) |  |  |
| Cn1ncc2c(-c3ccc(-n4c(=O)n(CC(=O)N5CCOCC5)c5ccccc54)cc3)cncc21 [Example 22, 1-[4-(1-methylpyrazolo[3,4-c]pyridin-4-yl)phenyl]-3-(2-morpholino-2-oxoethyl)benzimidazol-2-one] | D (pIC50≤6) | D (pIC50≤6) |  |  |
| Cn1ncc2c(-c3ccc(-n4c(=O)n(CC(=O)N5CCCC(C(F)(F)F)C5)c5ccccc54)cc3)cncc21 (centres unmarked) [Example 23, 1-[4-(1-methylpyrazolo[3,4-c]pyridin-4-yl)phenyl]-3-[2-oxo-2-[3-(trifluoromethyl)-1-piperidyl]ethyl]benzimidazol-2-one] | A (pIC50>8) | D (pIC50≤6) |  |  |
| Cn1ncc2c(-c3ccc(-n4c(=O)n(CC(=O)N5CCOC(C(F)(F)F)C5)c5ccccc54)cc3)cncc21 (centres unmarked) [Example 24, 1-[4-(1-methylpyrazolo[3,4-c]pyridin-4-yl)phenyl]-3-[2-oxo-2-[2-(trifluoromethyl)morpholin-4-yl]ethyl]benzimidazol-2-one] | A (pIC50>8) | D (pIC50≤6) |  |  |
| Cn1ncc2c(-c3ccc(-n4c(=O)n(CC(=O)N5CCC[C@H]5C(F)F)c5ccccc54)cc3)cncc21 [Example 25, 1-[2-[(2S)-2-(difluoromethyl)pyrrolidin-1-yl]-2-oxo-ethyl]-3-[4-(1-methylpyrazolo[3,4-c]pyridin-4-yl)phenyl]benzimidazol-2-one] | A (pIC50>8) |  | 10 to 100 nM |  |
| C[C@@H]1CCCN1C(=O)Cn1c(=O)n(-c2ccc(-c3cncc4c3cnn4C)cc2)c2ccccc21 [Example 27, 1-[4-(1-methylpyrazolo[3,4-c]pyridin-4-yl)phenyl]-3-[2-[(2R)-2-methylpyrrolidin-1-yl]-2-oxoethyl]benzimidazol-2-one] |  | D (pIC50≤6) |  | 10 to 100 nM |
| CC(CC(F)(F)F)NC(=O)Cn1c(=O)n(-c2ccc(-c3cncc4c3cnn4C)cc2)c2ccccc21 (centres unmarked) [Example 28, 2-[3-[4-(1-methylpyrazolo[3,4-c]pyridin-4-yl)phenyl]-2-oxo-benzimidazol-1-yl]-N-(3,3,3-trifluoro-1-methyl-propyl)acetamide] | A (pIC50>8) | D (pIC50≤6) |  |  |
| Cn1ncc2c(-c3ccc(-n4c(=O)n(CC(=O)N5CCC[C@@H](C(F)(F)F)C5)c5ccccc54)cc3)cncc21 [Example 29, 1-[4-(1-methylpyrazolo[3,4-c]pyridin-4-yl)phenyl]-3-[2-oxo-2-[(3R)-3-(trifluoromethyl)-1-piperidyl]ethyl]benzimidazol-2-one] | A (pIC50>8) | D (pIC50≤6) |  |  |
| Cn1ncc2c(-c3ccc(-n4c(=O)n(CC(=O)N5CCCC[C@@H]5C(F)(F)F)c5ccccc54)cc3)cncc21 [Example 30, 1-[4-(1-methylpyrazolo[3,4-c]pyridin-4-yl)phenyl]-3-[2-oxo-2-[(2R)-2-(trifluoromethyl)-1-piperidyl]ethyl]benzimidazol-2-one] |  | D (pIC50≤6) |  | 100 to 1000 nM |
| Cn1ncc2c(-c3ccc(-n4c(=O)n(CC(=O)N5CCC[C@H](C(F)(F)F)C5)c5ccccc54)cc3)cncc21 [Example 31, 1-[4-(1-methylpyrazolo[3,4-c]pyridin-4-yl)phenyl]-3-[2-oxo-2-[(3S)-3-(trifluoromethyl)-1-piperidyl]ethyl]benzimidazol-2-one] | A (pIC50>8) | D (pIC50≤6) |  |  |
